Reference: PubChem BioAssay (NCI)
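Results reflect a 48-hour exposure of cells in 96-well plates to compound at five concentrations. TGI marks complete inhibition of growth.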

How the values were obtained:
Assay in all cases: NCI tumour cell line growth inhibition, 48 h
NCI/ADR-RES ovarian = system: NCI/ADR-RES ovarian
UO-31 renal = system: UO-31 renal
PC-3 prostate = system: PC-3 prostate
K-562 leukemia = system: K-562 leukemia
SK-MEL-28 melanoma = system: SK-MEL-28 melanoma
HCT-116 colon = system: HCT-116 colon
RPMI-8226 leukemia = system: RPMI-8226 leukemia
LOX IMVI melanoma = system: LOX IMVI melanoma
OVCAR-3 ovarian = system: OVCAR-3 ovarian
OVCAR-8 ovarian = system: OVCAR-8 ovarian
A498 renal = system: A498 renal
SF-539 CNS = system: SF-539 CNS
MDA-N = system: MDA-N
786-0 renal = system: 786-0 renal
HOP-18 NSCLC = system: HOP-18 NSCLC
SR leukemia = system: SR leukemia
EKVX NSCLC = system: EKVX NSCLC
U251 CNS = system: U251 CNS
HOP-92 NSCLC = system: HOP-92 NSCLC
ACHN renal = system: ACHN renal
SF-295 CNS = system: SF-295 CNS
IGROV1 ovarian = system: IGROV1 ovarian
KM20L2 colon = system: KM20L2 colon
TK-10 renal = system: TK-10 renal
MDA-MB-231 breast = system: MDA-MB-231 breast
T-47D breast = system: T-47D breast
SK-MEL-5 melanoma = system: SK-MEL-5 melanoma
SF-268 CNS = system: SF-268 CNS
P388 leukemia = system: P388 leukemia
KM12 colon = system: KM12 colon
DLD-1 colon = system: DLD-1 colon
NCI-H460 lung = system: NCI-H460 lung
NCI-H226 lung = system: NCI-H226 lung
MCF7 breast = system: MCF7 breast
A549 NSCLC = system: A549 NSCLC
SK-MEL-2 melanoma = system: SK-MEL-2 melanoma
CCRF-CEM leukemia = system: CCRF-CEM leukemia
SNB-75 CNS = system: SNB-75 CNS
SW-620 colon = system: SW-620 colon
HOP-62 NSCLC = system: HOP-62 NSCLC
M19-MEL melanoma = system: M19-MEL melanoma
DMS 273 small cell lung = system: DMS 273 small cell lung
OVCAR-5 ovarian = system: OVCAR-5 ovarian
UACC-62 melanoma = system: UACC-62 melanoma
HCC-2998 colon = system: HCC-2998 colon
HS 578T breast = system: HS 578T breast
HL-60(TB) leukemia = system: HL-60(TB) leukemia
DMS 114 small cell lung = system: DMS 114 small cell lung
SK-OV-3 ovarian = system: SK-OV-3 ovarian
SN12K1 renal = system: SN12K1 renal
SNB-78 CNS = system: SNB-78 CNS
MALME-3M melanoma = system: MALME-3M melanoma
OVCAR-4 ovarian = system: OVCAR-4 ovarian
BT-549 breast = system: BT-549 breast
RXF 393 renal = system: RXF 393 renal
M14 melanoma = system: M14 melanoma
CAKI-1 renal = system: CAKI-1 renal
SNB-19 CNS = system: SNB-19 CNS
HCT-15 colon = system: HCT-15 colon
P388/ADR leukemia = system: P388/ADR leukemia
NCI-H23 lung = system: NCI-H23 lung
XF 498 CNS = system: XF 498 CNS
SN12C renal = system: SN12C renal
COLO 205 colon = system: COLO 205 colon
HT29 colon = system: HT29 colon
MDA-MB-435 = system: MDA-MB-435
DU-145 prostate = system: DU-145 prostate
MOLT-4 leukemia = system: MOLT-4 leukemia
UACC-257 melanoma = system: UACC-257 melanoma
NCI-H522 lung = system: NCI-H522 lung

Compound `O=C(NCCCCCCNC(=O)n1cc(F)c(=O)[nH]c1=O)NCCCOCCOCCOCCOCCOCCOCCOCCOCCOCCOCCOCCOCCOCCOCCOCCOCCOCCOCCOCCOCCOCCCNC(=O)C(O)C(O)C(O)C(O)CO` (stereo not given) has a TGI (NCI/ADR-RES ovarian) greater than 100 µM, a TGI (UO-31 renal) greater than 100 µM and a TGI (PC-3 prostate) greater than 100 µM. For the same compound, the TGI (K-562 leukemia) was greater than 100 µM, the TGI (SK-MEL-28 melanoma) was greater than 100 µM and the TGI (HCT-116 colon) was greater than 100 µM. The TGI (RPMI-8226 leukemia) was greater than 100 µM, the TGI (LOX IMVI melanoma) was greater than 100 µM and the TGI (OVCAR-3 ovarian) was greater than 100 µM. For the same compound, the TGI (OVCAR-8 ovarian) was greater than 100 µM, the TGI (A498 renal) was greater than 42.1 µM and the TGI (SF-539 CNS) was 43.7 µM. The TGI (MDA-N) was greater than 100 µM, the TGI (786-0 renal) was greater than 100 µM and the TGI (HOP-18 NSCLC) was greater than 100 µM. For the same compound, the TGI (SR leukemia) was greater than 100 µM, the TGI (EKVX NSCLC) was greater than 100 µM and the TGI (U251 CNS) was greater than 100 µM. It also gave a TGI (HOP-92 NSCLC) greater than 100 µM, a TGI (ACHN renal) greater than 100 µM and a TGI (SF-295 CNS) greater than 100 µM. For the same compound, the TGI (IGROV1 ovarian) was greater than 100 µM, the TGI (KM20L2 colon) was greater than 100 µM and the TGI (TK-10 renal) was greater than 100 µM. The TGI (MDA-MB-231 breast) was greater than 100 µM, the TGI (T-47D breast) was greater than 100 µM and the TGI (SK-MEL-5 melanoma) was greater than 100 µM. For the same compound, the TGI (SF-268 CNS) was greater than 100 µM, the TGI (P388 leukemia) was greater than 100 µM and the TGI (KM12 colon) was greater than 100 µM. The TGI (DLD-1 colon) was greater than 100 µM, the TGI (NCI-H460 lung) was greater than 100 µM and the TGI (NCI-H226 lung) was greater than 100 µM. It also gave a TGI (MCF7 breast) greater than 62 µM, a TGI (A549 NSCLC) greater than 100 µM and a TGI (SK-MEL-2 melanoma) greater than 100 µM. For the same compound, the TGI (CCRF-CEM leukemia) was greater than 100 µM, the TGI (SNB-75 CNS) was greater than 100 µM and the TGI (SW-620 colon) was greater than 100 µM. It also gave a TGI (HOP-62 NSCLC) greater than 100 µM, a TGI (M19-MEL melanoma) greater than 100 µM and a TGI (DMS 273 small cell lung) greater than 100 µM. The TGI (OVCAR-5 ovarian) was greater than 100 µM, the TGI (UACC-62 melanoma) was greater than 100 µM and the TGI (HCC-2998 colon) was greater than 100 µM. It also gave a TGI (HS 578T breast) greater than 100 µM, a TGI (HL-60(TB) leukemia) greater than 100 µM and a TGI (DMS 114 small cell lung) greater than 100 µM. It also gave a TGI (SK-OV-3 ovarian) greater than 100 µM, a TGI (SN12K1 renal) greater than 100 µM and a TGI (SNB-78 CNS) greater than 100 µM. For the same compound, the TGI (MALME-3M melanoma) was greater than 100 µM, the TGI (OVCAR-4 ovarian) was greater than 100 µM and the TGI (BT-549 breast) was greater than 100 µM. It also gave a TGI (RXF 393 renal) greater than 100 µM, a TGI (M14 melanoma) greater than 100 µM and a TGI (CAKI-1 renal) greater than 100 µM. It also gave a TGI (SNB-19 CNS) greater than 100 µM, a TGI (HCT-15 colon) greater than 100 µM and a TGI (P388/ADR leukemia) greater than 100 µM. The TGI (NCI-H23 lung) was greater than 100 µM, the TGI (XF 498 CNS) was greater than 100 µM and the TGI (SN12C renal) was greater than 100 µM. It also gave a TGI (COLO 205 colon) greater than 100 µM, a TGI (HT29 colon) greater than 100 µM and a TGI (MDA-MB-435) greater than 100 µM. The TGI (DU-145 prostate) was greater than 100 µM, the TGI (MOLT-4 leukemia) was greater than 100 µM and the TGI (UACC-257 melanoma) was greater than 100 µM. It also gave a TGI (NCI-H522 lung) greater than 100 µM.
